Experimental data: US20140057895A1, “INDAZOLE- AND PYRROLOPYRIDINE-DERIVATIVE AND PHARMACEUTICAL USE THEREOF” (priority 2011, published 2014)
pIC50: −log10 of the molar value.

Key:
5-HT4 receptor = molecular target: T1, 5-HT4 receptor (Cavia porcellus, UniProt O70528); assay: Test Example 1: Serotonin 4 (5-HT4) receptor binding assay, [3H]-GR113808, guinea pig striatum membranes (Table 96); settings: Guinea pig 5-HT4 receptor binding assay, [3H]-GR113808, striatum membranes; mean value of each group
T1 construct: striatum was isolated which was cryopreserved at −80° C. until use; from tissue; host or cells: guinea pig (Slc-Hartley) striatum membranes

[1] = molecular target: T2, Human 5-HT4 receptor (5-HT4b) (Homo sapiens, UniProt Q13639); assay: Test Example 3: Human 5-HT4 receptor binding assay, membranes of CHO-K1 cells stably expressing 5-HT4b receptors (Table 99); settings: mean value of each group
T2 construct: expressed in transfected cells; membrane preparation
Procedure, shortened: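 Radioligand displacement: [3H]-GR113808 (0.1 nM) bound to CHO-K1 5-HT4b membranes for 30 min at 37 °C in Hepes buffer (50 mM, pH 7.4). Specific binding is total minus that with 30 μM serotonin; filter-bound radioactivity counted, IC50 derived from percent inhibition.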

[2] = tested on: scopolamine-induced cognitive impairment; assay: Example 5: Y-maze test, scopolamine-induced cognitive impairment, single-agent administration (Table 101); assay type: in vivo, ddY mouse; settings: p.o., scopolamine-treated, # = P<0.05 vs scopolamine group
Description: Thus, scopolamine-induced cognitive impairment model, one of the AD-like model, has been used to predict pharmacodynamic signals of putative procognitive compounds, utilizing the acetylcholinesterase inhibitor donepezil for illustration (See, Citations 1 and 2). The present inventors investigated the effect of each compound on reversal of scopolamine-induced deficits in performance of Y-maze test in mice, and they also investigated adjunctive effect of compounds with donepezil on reversal of deficits induced by scopolamine and MK801 in mice.
Used animal: ddY mouse (SLC)
In the experiments, the mice were grouped in the same way using Stat Preclinica (Version 1.03295; Takumi Information Technology Inc.). The selected mice were divided into 5 to 7 groups of 7 to 12 mice using the “completely randomization design by the single variable” program (Analytical program version 1.0.7), with body weight on the testing day. After grouping, p values for Bartlett's test and ANOVA across all groups were greater than 0.2, indicating no significant difference in this parameter among the groups.
The required amount of each compound was weighed and put into a glass homogenizer. […]
The required amount of scopolamine and MK801 were weighed, and saline was added to it to give 0.3 mg/mL and 0.015 mg/mL solution, respectively.
90 Min before the test, the mice were orally administered each compound, donepezil, and vehicle (0.5% methyl cellulose, 10 mL/kg). After 60 min, memory impairment was induced by administering scopolamine (0.6 mg/kg, s.c.) with (co-administration) or without (mono-administration) MK801 (0.03 mg/kg, s.c.). The control group received saline (2 mL/kg, s.c.) rather than scopolamine and MK801.
The Y-maze used herein is a three-arm maze with equal angles between all arms. The mazefloor and walls were constructed from black acrylic resin. The mice were initially placed within one arm, and the sequence and number of arm entries were recorded manually for each mouse over an 8-min period.
Data were processed and analyzed with Microsoft® Office Excel 2003. The alternation behavior was defined as entries into all three arms on consecutive occasions. The percent alternation behavior in each animal was calculated using the following formula, and rounded to one decimal place.
Alternation behavior(%)=[actual alternation/(total arm entries−2)]×100
Restoration ratio of alternation behavior (%) in each animal was calculated using the following formula, and rounded to one decimal place.
Restoration ratio of alternation behavior in each animal (%)=y Alternation behavior in each animal (%)=x Mean of alternation behavior in vehicle-treated group (group No. 1) (%)=A Mean of alternation behavior in scopolamine-treated group (group No. 2) (%)=B
Data were expressed as the mean of the percent alternation behavior, the number of total arm entries and the restoration ratio of alternation behavior.
Values of Y-maze tests are expressed as mean of alternation behavior (n=7−12).
Alternation behaviors in the scopolamine-treated groups were compared to those in the control groups using Wilcoxon rank sum test (Stat preclinical; Version 1.03295; Takumi Information Technology Inc.) with a two-sided significance level of 0.05.
Restoration of alternation behavior was analyzed using Stat Preclinica. Alternation behaviors in the vehicle-treated group were compared to those in the test substance-treated groups using non-parametric Dunnett multiple comparison test (Analytical program version 1.0.2) with a two-sided significance level of 0.05.

T2 sequence (Q13639 whole entry): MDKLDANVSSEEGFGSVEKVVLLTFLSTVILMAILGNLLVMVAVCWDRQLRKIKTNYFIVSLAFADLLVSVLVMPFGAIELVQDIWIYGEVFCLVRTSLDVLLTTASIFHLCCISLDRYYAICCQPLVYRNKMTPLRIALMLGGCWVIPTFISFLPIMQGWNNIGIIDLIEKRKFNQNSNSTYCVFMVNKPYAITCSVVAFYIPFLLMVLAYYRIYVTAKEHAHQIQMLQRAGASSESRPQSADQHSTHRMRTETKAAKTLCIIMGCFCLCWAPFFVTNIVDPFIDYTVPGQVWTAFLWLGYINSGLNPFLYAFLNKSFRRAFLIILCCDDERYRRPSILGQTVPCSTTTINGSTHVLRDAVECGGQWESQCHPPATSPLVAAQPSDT
T1 sequence (O70528 whole entry): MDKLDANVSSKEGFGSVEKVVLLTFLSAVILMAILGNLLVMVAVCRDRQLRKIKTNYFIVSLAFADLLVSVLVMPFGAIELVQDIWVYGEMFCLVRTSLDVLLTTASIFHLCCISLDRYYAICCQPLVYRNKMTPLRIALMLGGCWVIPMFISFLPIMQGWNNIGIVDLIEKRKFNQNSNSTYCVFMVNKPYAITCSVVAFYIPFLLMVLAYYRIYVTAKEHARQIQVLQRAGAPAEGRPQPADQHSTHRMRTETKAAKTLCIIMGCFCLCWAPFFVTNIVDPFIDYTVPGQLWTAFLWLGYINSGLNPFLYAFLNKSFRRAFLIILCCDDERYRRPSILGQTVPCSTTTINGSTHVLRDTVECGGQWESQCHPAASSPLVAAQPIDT

Row | SMILES | pIC50 (5-HT4 receptor) | pIC50 [1] | Alternation behavior (%) ([2]; compound 1 mg/kg) | Alternation behavior (%) ([2]; compound 3 mg/kg) | Alternation behavior (%) ([2]; compound 10 mg/kg)
1 | CC(=O)N1CCC(N2CCC(c3nc(-n4nc(C(C)C)c5cccc(F)c54)no3)CC2)CC1.Cl [Example 232, 1-(4-{3-[7-fluoro-3-(propan-2-yl)-1H-indazol-1-yl]-1,2,4-oxadiazol-5-yl}-1,4′-bipiperidin-1′-yl)ethanone hydrochloride] | > 7.70 | > 7.70 | 66.3^# % | 63.0^# % | 53.6%
2 | CC(C)c1nn(-c2noc(C3CCN(C4CCN(C(=O)CO)CC4)CC3)n2)c2c(F)cccc12 [Example 242, 1-(4-{3-[7-fluoro-3-(propan-2-yl)-1H-indazol-1-yl]-1,2,4-oxadiazol-5-yl}-1,4′-bipiperidin-1′-yl)-2-hydroxyethanone] | > 7.70 | > 7.70 | 63.4^# % | 62.9^# % | 57.5%
